{"source": "patent US7317009B2", "about": "“Pyrrolopyridazine derivatives” (Astellas Pharma Inc., priority 2003, dated 2008)", "data": [{"tested_on": "TNF-alpha production in LPS stimulated human peripheral blood mononuclear cells (PBMCs)", "assay": "Inhibition on TNF-alpha Production in Human Mononuclear Cells", "type": "cell-based", "conditions": "PBMC, LPS 1 μg/mL, 24 hours, TNF-alpha by ELISA, read-out: IC50, TNF-alpha production from stimulated PBMCs", "description": "(b) Inhibition on TNF-alpha Production in Human Mononuclear Cells 1. Test Method (1) Human Peripheral Blood Mononuclear Cells (PBMCs) Preparation\nBlood (30 ml for each person) was collected from the median cubital vein of healthy volunteer was divided 15 mL each in heparin containing conical tube and the same volume of RPMI1640 was added to each tube. Diluted blood was then piled up to 20 mL of Ficoll-Paque PLUS (Amersham Pharmacia Biotech) in polystyrene centrifuge tube. After centrifugation at 1,600 rpm for 30 minutes, cells gathering in the center area of the gradient were collected by capillary and washed with 40 mL of RPMI1640 in several times with centrifugation at 1,200 rpm for 10 minutes. PBMC finally precipitated were suspended in RPMI1640 containing 1% fetal bovine serum and antibiotics. After cell counting, final suspension at 3×10^6 cells/mL in culture medium was prepared.\nHuman PBMCs prepared by the density gradient method using Ficoll-Paque PLUS were suspended in the culture medium mentioned above with the concentration of 3×10^6 cells/mL and 0.5 mL of the suspension was sowed into each well of a 24-well culture plate. Cells were incubated in the CO2 incubator for 24 hours with 0.25 mL of LPS in addition of 0.25 mL of concentrations of drugs or vehicle at the start of the incubation. […] TNF-alpha levels in the medium were measured by ELISA. […]", "units": {"IC50": "µM"}, "values": [{"smiles": "CCc1ccc2c(-c3ccc(C(N)=O)cc3)c(CCCCCC(=O)O)c(C)nn12", "note": "[Example 198, 6-{4-[4-(Aminocarbonyl)phenyl]-7-ethyl-2-methylpyrrolo[1,2-b]pyridazin-3-yl}hexanoic acid]", "IC50": "< 0.1"}]}, {"target": "U937 Phosphodiesterase IV (PDE IV)", "assay": "Inhibition of U937 Phosphodiesterase IV (PDE IV)", "type": "biochemical", "conditions": "enzyme preparation from U937 cells, [3H]cAMP SPA assay, CI-930 10 μM added, 30° C. 15 minutes; read-out: IC50, inhibitory activity on PDE-IV", "description": "(a) Inhibition of U937 Phosphodiesterase IV (PDE IV)\nCultured U937 cells were washed twice and harvested with phosphate-buffered saline (PBS) by cell-scraper. After centrifugation, the cell pellet was suspended in homogenizing buffer (0.5% deoxycholate [DOC], 5 mM 2-mercaptoethanol, 1 μM leupeptin, 100 μM PMSF, 20 μM p-tosyl-L-lysine-chloromethyl ketone [TLCK] in PBS). The cell suspension was then sonicated for a couple of minutes and homogenized by a glass-Teflon homogenizer with twenty strokes. The homogenate was centrifuged at 200 g for 30 minutes, and the supernatant was further ultra-centrifuged at 100,000×g for 90 minutes (4° C.). […]\nPDE4, activity was estimated with a Phosphodiesterase [^3H]cAMP SPA Enzyme Assay System (Amersham Pharmacia Biotech), using a 96 well Opti-plate. […] Radio-activity in each well was counted by a Top Counter. […]\nIC50 values of test compounds for the enzyme activity of PDE4 was determined from regression analysis for log-logit conversion values of percent inhibition in the compound-treated tubes compared to that of the control. Percent inhibition was calculated with the following equation: Inhibition (%)={1−(C−B)/(A−B)}×100; in which A, B and C means mean values of radio-activity counts (dpm) of control, blank and the compound-treated tubes, respectively.", "units": {"IC50": "µM"}, "values": [{"smiles": "CCc1ccc2c(-c3ccc(C(N)=O)cc3)c(CCCCCC(=O)O)c(C)nn12", "note": "[Example 198, 6-{4-[4-(Aminocarbonyl)phenyl]-7-ethyl-2-methylpyrrolo[1,2-b]pyridazin-3-yl}hexanoic acid]", "IC50": "< 1"}]}, {"tested_on": "not given", "assay": "not given", "conditions": "not given", "units": {"melting point": "°C"}, "values": [{"smiles": "CCc1ccc2c(-c3cncc(Br)c3)c(CCC(=O)NS(C)(=O)=O)c(C)nn12", "note": "[Example 390, N-{3-[4-(5-bromo-3-pyridinyl)-7-ethyl-2-methylpyrrolo[1,2-b]pyridazin-3-yl]propanoyl}methanesulfonamide]", "melting point": "196.5 to 197.5"}, {"smiles": "CCc1ccc2c(-c3cccc(Cl)c3)c(CCCCC(=O)NC)c(-c3ccccc3)nn12", "note": "[Example 280, 5-[4-(3-Chlorophenyl)-7-ethyl-2-phenylpyrrolo[1,2-b]pyridazin-3-yl]-N-methylpentanamide]", "melting point": "70 to 72"}, {"smiles": "CCc1ccc2c(-c3cncc(Br)c3)c(CCC(=O)NC)c(C)nn12", "note": "[Example 389, 3-[4-(5-bromo-3-pyridinyl)-7-ethyl-2-methylpyrrolo[1,2-b]pyridazin-3-yl]-N-methylpropanamide]", "melting point": "172 to 174"}, {"smiles": "CCc1ccc2c(-c3cncc(OC)c3)c(CCCCC(=O)O)c(COC)nn12", "note": "[Example 496, 5-[7-ethyl-2-(methoxymethyl)-4-(5-methoxy-3-pyridinyl)pyrrolo[1,2-b]pyridazin-3-yl]pentanoic acid]", "melting point": "111 to 112"}, {"smiles": "CCc1ccc2c(-c3cccc(C#N)c3)c(CCCCC(=O)Nc3ccccn3)c(-c3ccccc3)nn12", "note": "[Example 263, 5-[4-(3-Cyanophenyl)-7-ethyl-2-phenylpyrrolo[1,2-b]pyridazin-3-yl]-N-(2-pyridinyl)pentanamide]", "melting point": "67 to 70"}, {"smiles": "CCc1ccc2c(-c3cncc(Cl)c3)c(CCCC(=O)O)c(COC)nn12", "note": "[Example 501, 4-[4-(5-chloro-3-pyridinyl)-7-ethyl-2-(methoxymethyl)pyrrolo[1,2-b]pyridazin-3-yl]butanoic acid]", "melting point": "112 to 113"}, {"smiles": "CCc1ccc2c(-c3cncc(Br)c3)c(CCCCC(=O)NS(C)(=O)=O)c(C)nn12", "note": "[Example 267, N-{5-[4-(5-Bromo-3-pyridinyl)-7-ethyl-2-methylpyrrolo[1,2-b]pyridazin-3-yl]pentanoyl}methanesulfonamide]", "melting point": "124 to 125"}, {"smiles": "CCc1ccc2c(-c3cncc(Br)c3)c(CCC(=O)N3CCOCC3)c(C)nn12", "note": "[Example 388, 4-(5-bromo-3-pyridinyl)-7-ethyl-2-methyl-3-[3-(4-morpholinyl)-3-oxopropyl]pyrrolo[1,2-b]pyridazine]", "melting point": "178 to 180"}, {"smiles": "CCc1ccc2c(-c3cccc(C#N)c3)c(CCCCC(=O)NC)c(-c3ccccc3)nn12", "note": "[Example 278, 5-[4-(3-Cyanophenyl)-7-ethyl-2-phenylpyrrolo[1,2-b]pyridazin-3-yl]-N-methylpentanamide]", "melting point": 60}, {"smiles": "CCc1ccc2c(-c3cccc(C#N)c3)c3c(nn12)CCC3=O", "note": "[Example 10, 3-(6-Ethyl-1-oxo-2,3-dihydro-1H-cyclopenta[e]pyrrolo[1,2-b]pyridazin-9-yl)benzonitrile]", "melting point": "150 to 154"}, {"smiles": "CCc1ccc2c(-c3cccc(C#N)c3)c(CCCCC(=O)N3CCOCC3)c(-c3ccccc3)nn12", "note": "[Example 282, 3-{7-Ethyl-3-[5-(4-morpholinyl)-5-oxopentyl]-2-phenylpyrrolo[1,2-b]pyridazin-4-yl}benzonitrile]", "melting point": "66 to 69"}, {"smiles": "CCc1ccc2c(-c3cccc(Cl)c3)c(CCCCC(=O)N3CCOCC3)c(-c3ccccc3)nn12", "note": "[Example 279, 4-(3-Chlorophenyl)-7-ethyl-3-[5-(4-morpholinyl)-5-oxopentyl]-2-phenylpyrrolo[1,2-b]pyridazine]", "melting point": "55 to 58"}, {"smiles": "CCc1ccc2c(-c3cccc(Cl)c3)c(C#N)c(-c3ccccc3)nn12", "note": "[Example 7, 4-(3-Chlorophenyl)-7-ethyl-2-phenylpyrrolo[1,2-b]pyridazine-3-carbonitrile]", "melting point": "172 to 173"}, {"smiles": "CCc1ccc2c(-c3cncc(Br)c3)c(C(=O)OC)c(COC(C)=O)nn12", "note": "[Example 429, methyl 2-[(acetyloxy)methyl]-4-(5-bromo-3-pyridinyl)-7-ethylpyrrolo[1,2-b]pyridazine-3-carboxylate]", "melting point": "122 to 123"}, {"smiles": "CCOC(=O)CC(=O)Cc1c(C)nn2c(Cl)ccc2c1-c1ccc(F)cc1", "note": "[Example 192, Ethyl 4-[7-chloro-4-(4-fluorophenyl)-2-methylpyrrolo[1,2-b]pyridazin-3-yl]-3-oxobutanoate]", "melting point": "116 to 118"}, {"smiles": "CCc1ccc2c(-c3cncc(Br)c3)c(CCC(=O)O)c(C)nn12", "note": "[Example 135, 3-[4-(5-Bromo-3-pyridinyl)-7-ethyl-2-methylpyrrolo[1,2-b]pyridazin-3-yl]propanoic acid]", "melting point": "181 to 182"}, {"smiles": "CCc1ccc2c(-c3cncc(OC)c3)c(CCC(=O)O)c(COC)nn12", "note": "[Example 498, 3-[7-ethyl-2-(methoxymethyl)-4-(5-methoxy-3-pyridinyl)pyrrolo[1,2-b]pyridazin-3-yl]propanoic acid]", "melting point": "164 to 165"}, {"smiles": "CCc1ccc2c(-c3cncc(Cl)c3)c(CCC(=O)O)c(COC)nn12", "note": "[Example 502, 3-[4-(5-chloro-3-pyridinyl)-7-ethyl-2-(methoxymethyl)pyrrolo[1,2-b]pyridazin-3-yl]propanoic acid]", "melting point": "159 to 160"}, {"smiles": "CCc1ccc2c(-c3ccnc(Cl)c3)c(CCCCC(=O)O)c(C)nn12", "note": "[Example 94, 5-[4-(2-Chloro-4-pyridinyl)-7-ethyl-2-methylpyrrolo[1,2-b]pyridazin-3-yl]pentanoic acid]", "melting point": "139 to 140"}, {"smiles": "CCc1ccc2c(-c3cncc(OC)c3)c(CCCC(=O)O)c(COC)nn12", "note": "[Example 499, 4-[7-ethyl-2-(methoxymethyl)-4-(5-methoxy-3-pyridinyl)pyrrolo[1,2-b]pyridazin-3-yl]butanoic acid]", "melting point": "140 to 141"}, {"smiles": "CCc1ccc2c(-c3cncc(Cl)c3)c(CCCCC(=O)O)c(COC)nn12", "note": "[Example 503, 5-[4-(5-chloro-3-pyridinyl)-7-ethyl-2-(methoxymethyl)pyrrolo[1,2-b]pyridazin-3-yl]pentanoic acid]", "melting point": "118 to 119"}]}]}
